Data: patent US6603023B2 (priority 1996, dated 2003)
Read-outs that look alike come from different tables or passages of the source.

Details: ester bond

## C/C(=C\c1csc(C)n1)[C@@H]1C/C=C\CCCC[C@H](O[Si](C)(C)C(C)(C)C)[C@@H](C)C(=O)C(C)(C)[C@@H](O[Si](C)(C)C(C)(C)C)CC(=O)O1
From C/C(=C\c1csc(C)n1)[C@@H](O)C/C=C\CCCC[C@H](O[Si](C)(C)C(C)(C)C)[C@@H](C)C(=O)C(C)(C)[C@H](CC(=O)O)O[Si](C)(C)C(C)(C)C, DCC/DMAP/DMAP.HCl, CHCl3, 0.32 mM, 80.0 °C, 20.0 h
  ring closure, yield of all isomers: 75%

## CC[Si](CC)(CC)O[C@H]1CC(=O)O[C@H](/C(C)=C/c2csc(C)n2)C/C=C(/C)CCC[C@H](C)[C@H](OC(=O)OCC(Cl)(Cl)Cl)[C@@H](C)C(=O)C1(C)C
From CC[Si](CC)(CC)O[C@@H](CC(=O)O)C(C)(C)C(=O)[C@H](C)[C@@H](OC(=O)OCC(Cl)(Cl)Cl)[C@@H](C)CCC/C(C)=C\C[C@H](O)/C(C)=C/c1csc(C)n1, 2,4,6-trichlorobenzoyl chloride / Et3N / DMAP, toluene, 0.79 mM, 25.0 °C, 3.5 h
  ring closure, yield of all isomers: 78%
From CC[Si](CC)(CC)O[C@@H](CC(=O)O)C(C)(C)C(=O)[C@H](C)[C@@H](OC(=O)OCC(Cl)(Cl)Cl)[C@@H](C)CCC/C(C)=C\C[C@H](O)/C(C)=C/c1csc(C)n1, 2,4,6-trichlorobenzoyl chloride/Et3N/DMAP, toluene, 1.32 mM, 25.0 °C, 3.75 h
  ring closure, yield of all isomers: 78%
